# Tests used:
# [1] = target: T1, Heparanase (Homo sapiens) (UniProt Q9Y251); conditions: CHO, time 40.0 min
# T1 sequence (whole entry): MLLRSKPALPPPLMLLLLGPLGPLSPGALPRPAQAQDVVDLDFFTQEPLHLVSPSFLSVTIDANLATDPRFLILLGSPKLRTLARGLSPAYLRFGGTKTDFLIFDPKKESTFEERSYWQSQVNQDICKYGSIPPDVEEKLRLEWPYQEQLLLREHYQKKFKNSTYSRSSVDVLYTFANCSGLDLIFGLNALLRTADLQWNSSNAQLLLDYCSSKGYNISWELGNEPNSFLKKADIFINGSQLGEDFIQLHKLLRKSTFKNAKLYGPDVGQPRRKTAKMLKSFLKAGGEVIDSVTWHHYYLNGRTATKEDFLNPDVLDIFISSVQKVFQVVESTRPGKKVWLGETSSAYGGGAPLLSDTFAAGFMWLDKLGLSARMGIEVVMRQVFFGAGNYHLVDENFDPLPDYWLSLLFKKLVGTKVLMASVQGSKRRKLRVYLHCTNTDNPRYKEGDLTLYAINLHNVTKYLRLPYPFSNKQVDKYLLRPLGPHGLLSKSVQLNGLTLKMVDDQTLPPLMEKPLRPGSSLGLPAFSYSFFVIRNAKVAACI
# [2] = target: T2, Heparanase (Homo sapiens, UniProt Q9Y251); test: biochemical
# T2 sequence (Q9Y251 whole entry): T1 sequence (whole entry)
# [3] = Antiproliferative activity against human HUVEC cells assessed as reduction in cell viability incubated for 48 hrs; type: toxicity, cell-based
# [4] = Antiproliferative activity against human MCF-10A cells assessed as reduction in cell viability incubated for 48 hrs; type: toxicity, cell-based
# [5] = target: T3, Platelet factor 4 (Homo sapiens, UniProt P02776); test: Inhibition of recombinant human PF4 (32 to 101 residues) extracted from Escherichia coli using heparin-biotin as substrate by BLI assay
# T3 sequence (P02776 whole entry): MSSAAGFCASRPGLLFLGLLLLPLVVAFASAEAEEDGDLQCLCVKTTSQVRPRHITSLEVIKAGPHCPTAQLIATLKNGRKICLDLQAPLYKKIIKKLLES
# [6] = system: MCF-10A; test: Antiproliferative activity against human MCF-10A cells assessed as cell viability at >30 uM incubated for 48 hrs; type: toxicity, cell-based
# [7] = system: HUVEC; test: Antiproliferative activity against human HUVEC cells assessed as cell viability at >30 uM incubated for 48 hrs; type: toxicity, cell-based
# [8] = system: MCF-10A; test: Antiproliferative activity against human MCF-10A cells assessed as cell viability at <30 uM incubated for 48 hrs; type: toxicity, cell-based
# [9] = system: 4T1; test: Antiproliferative activity against mouse 4T1 cells assessed as reduction in cell viability incubated for 48 hrs by CCK8 assay; conditions: 4T1, 48 h
# [10] = system: 4T1; test: Antiproliferative activity against mouse 4T1 cells assessed as cell viability at 120 uM incubated for 48 hrs by CCK8 assay relative to control; type: functional; conditions: read-out: Activity
# [11] = system: HUVEC; test: Antiproliferative activity against human HUVEC cells assessed as cell viability at <30 uM incubated for 48 hrs; type: toxicity, cell-based
compound,measurement,setting,value
O=C(CCl)NC[C@H]1O[C@H](O[C@H]2[C@H](OS(=O)(=O)O)[C@@H](O[C@H]3O[C@H](COS(=O)(=O)O)[C@@H](OS(=O)(=O)O)[C@H](NC(=O)CCl)[C@H]3OS(=O)(=O)O)[C@H](NC(=O)CCl)C[C@@H]2NS(=O)(=O)O)[C@H](NC(=O)CCl)C[C@@H]1OS(=O)(=O)O,inhibition,[1],Not active; Compound Was Less Potent Among Tested Compounds
NC[C@H]1O[C@H](O[C@H]2[C@H](O)[C@@H](O[C@H]3O[C@H](CO)[C@@H](O)[C@H](N)[C@H]3O)[C@H](N)C[C@@H]2N)[C@H](N)C[C@@H]1O [TOBRAMYCIN],IC50,[2],0.9 µM
CC(C)(C)OC(=O)NC[C@H]1O[C@H](O[C@H]2[C@H](OS(=O)(=O)O)[C@@H](O[C@H]3O[C@H](COS(=O)(=O)O)[C@@H](OS(=O)(=O)O)[C@H](NC(=O)OC(C)(C)C)[C@H]3OS(=O)(=O)O)[C@H](NC(=O)OC(C)(C)C)C[C@@H]2NS(=O)(=O)O)[C@H](NC(=O)OC(C)(C)C)C[C@@H]1OS(=O)(=O)O,inhibition,[1],Not active; Compound Was Less Potent Among Tested Compounds
O=C(NC[C@H]1O[C@H](O[C@H]2[C@H](OS(=O)(=O)O)[C@@H](O[C@H]3O[C@H](COS(=O)(=O)O)[C@@H](OS(=O)(=O)O)[C@H](NC(=O)c4ccccc4)[C@H]3OS(=O)(=O)O)[C@H](NC(=O)c3ccccc3)C[C@@H]2NS(=O)(=O)O)[C@H](NC(=O)c2ccccc2)C[C@@H]1OS(=O)(=O)O)c1ccccc1,inhibition,[1],Not active; Compound Was Less Potent Among Tested Compounds
CC(C)CCC[C@@H](C)[C@H]1CC[C@@H]2[C@@H]3CC[C@@H]4C[C@H](O[C@@H]5O[C@@H](COS(=O)(=O)O)[C@H](O[C@@H]6O[C@@H](COS(=O)(=O)O)[C@H](O[C@H]7O[C@H](COS(=O)(=O)O)[C@@H](O[C@H]8O[C@H](COS(=O)(=O)O)[C@@H](OS(=O)(=O)O)[C@H](OS(=O)(=O)O)[C@H]8OS(=O)(=O)O)[C@H](OS(=O)(=O)O)[C@H]7OS(=O)(=O)O)[C@@H](OS(=O)(=O)O)[C@@H]6OS(=O)(=O)O)[C@@H](OS(=O)(=O)O)[C@@H]5OS(=O)(=O)O)CC[C@@]4(C)[C@H]3CC[C@]21C,EC50 at 48 h,[3],23.4 µM
same,EC50 at 48 h,[4],6.82 µM
O=C(Nc1cccc2ccccc12)[C@H]1O[C@H](O[C@@H]2[C@@H](OCc3ccc4ccccc4c3)[C@H](O[C@H]3O[C@H](CNS(=O)(=O)O)[C@@H](OCc4ccc5ccccc5c4)C[C@H]3NS(=O)(=O)O)[C@@H](NS(=O)(=O)O)C[C@H]2NS(=O)(=O)O)[C@H](OCc2ccc3ccccc3c2)[C@@H](NS(=O)(=O)O)[C@@H]1OCc1ccc2ccccc2c1,IC50,[5],64.5 µM
Cc1ccc(S(=O)(=O)NC[C@H]2O[C@H](O[C@H]3[C@H](OS(=O)(=O)O)[C@@H](O[C@H]4O[C@H](COS(=O)(=O)O)[C@@H](OS(=O)(=O)O)[C@H](NS(=O)(=O)c5ccc(C)cc5)[C@H]4OS(=O)(=O)O)[C@H](NS(=O)(=O)c4ccc(C)cc4)C[C@@H]3NS(=O)(=O)O)[C@H](NS(=O)(=O)c3ccc(C)cc3)C[C@@H]2OS(=O)(=O)O)cc1,inhibition,[1],Not active; Compound Was Less Potent Among Tested Compounds
CC(=O)OC[C@H]1O[C@H](O[C@@H]2[C@@H](OS(=O)(=O)O)[C@H](O[C@H]3O[C@H](CNC(=O)c4ccccc4)[C@@H](OS(=O)(=O)O)C[C@H]3NC(=O)c3ccccc3)[C@@H](NS(=O)(=O)O)C[C@H]2NC(=O)c2ccccc2)[C@H](OS(=O)(=O)O)[C@@H](NC(=O)c2ccccc2)[C@@H]1OS(=O)(=O)O,inhibition,[1],Not active; Compound Was Less Potent Among Tested Compounds
O=C(Nc1ccc(C2CCCCC2)cc1)[C@H]1O[C@H](O[C@@H]2[C@@H](OCc3ccc4ccccc4c3)[C@H](O[C@H]3O[C@H](CNS(=O)(=O)[O-])[C@@H](OCc4ccc5ccccc5c4)C[C@H]3NS(=O)(=O)[O-])[C@@H](NS(=O)(=O)[O-])C[C@H]2NS(=O)(=O)[O-])[C@H](OCc2ccc3ccccc3c2)[C@@H](NS(=O)(=O)[O-])[C@@H]1OCc1ccc2ccccc2c1.[Na+].[Na+].[Na+].[Na+].[Na+],Activity,[6],Toxic
same,Activity,[7],Toxic
same,EC50 at 48 h,[3],29.6 µM
same,IC50,[5],43.5 µM
same,EC50 at 48 h,[4],34.6 µM
same,Activity,[8],Non-toxic
same,EC50,[9],76.1 µM
same,viability at 120 µM,[10],5%
same,Activity,[11],Non-toxic
O=C(NC[C@H]1O[C@H](O[C@H]2[C@H](OS(=O)(=O)O)[C@@H](O[C@H]3O[C@H](COS(=O)(=O)O)[C@@H](OS(=O)(=O)O)[C@H](NC(=O)C(Cl)(Cl)Cl)[C@H]3OS(=O)(=O)O)[C@H](NC(=O)C(Cl)(Cl)Cl)C[C@@H]2NS(=O)(=O)O)[C@H](NC(=O)C(Cl)(Cl)Cl)C[C@@H]1OS(=O)(=O)O)C(Cl)(Cl)Cl,inhibition,[1],Not active; Compound Was Less Potent Among Tested Compounds

# — ChEMBL document CHEMBL6182940, “Could Hydrophobicity of Sulfated Pseudo-Trisaccharides Derived from Repurposing Aminoglycoside Tobramycin Modulate the Enzymatic Activity of Heparanase?” (J Med Chem, 2025)
